Source: patent publication US6468567B1, “Malt beverage having stabilized flavor and methods of production thereof” (Cerveceria Polar, C.A., priority 1997, dated 2002)

Experiment: Addition of 1,2-phenylenediamine to wort (chromatogram)
Details: wort + 1,2-phenylenediamine versus wort; FIG. 5
Protocol: FIG. 5. […] A: wort. B: wort+1,2-phenylenediamine.
A fixed volume (2.2 ml) of 5% 1,2-phenylenediamine (OPD) in methanol was added to a bottle of beer (222 ml) that was then recapped and kept at 20° C. for 12 hours. After 12 hours of reaction, 25 ml of sample were extracted with chloroform (3×8 ml). The chloroform organic phase was removed by centrifugation at 3000 rpm for 10 min, collected, washed with 0.1 M HCl (3×8 ml) in order to remove the unreacted 1,2-phenylenediamine, and semi-dried with magnesium sulfate. The semi-dried organic phase, which contained the hydrophobic quinoxaline derivatives, was then rotavapped to dryness, and the residue resuspended in 250 μl of acetonitrile, and diluted 1/10 (50% solvent A and 50% solvent B) before chromatographic analysis. Hydrophobic quinoxalines were analyzed using Method I (see below). The aqueous phase, containing hydrophilic quinoxalines, was injected directly and analyzed using Method II (see below).
Chromatographic conditions were as follows: a Nova-Pak C18 (Waters) column 3.9×150 mm, 4 μm was used. The mobile phase was: solvent A—95% water (Milli-Q) and 5% acetonitrile; solvent B—90% acetonitrile and 10% water; flow rate 0.7 ml/min. Elution was monitored with a Waters 991 Photodiode Array Detector (200 nm-360 nm).

**Q.** Which “change in the LC18 peak” value does the source give for `Nc1ccccc1N` [1,2-phenylenediamine] here?
**A.** The value was “specific reduction”.
